Legend:
[1] = test system: CYP1A1 mRNA levels in HT26; assay: CYP1A1 Gene Expression Assay, mouse CRC cell line HT26; format: cell-based; conditions: for IC50: Mus musculus; for Mouse CYP1A1 % eff: efficacy given with the IC50
Protocol: Human and mouse colorectal cancer (CRC) cell lines, HT29 and HT26 respectively, American Type Culture Collection (ATCC) are plated in a sterile tissue culture treated 96-well plate (ThermoFisher) at 8.0×10^5 cells per well, and grown overnight at 37° C., 5% CO2 in DMEM complete (Gibco) in order to achieve confluence. After the incubation medium is aspirated off the cell monolayers, tissues are then washed with 200 μL of warmed PBS solution, and subsequently 190 μL of pre-warmed growth medium is added to each well. AhR antagonist of interest are diluted at a 20×concentration in growth medium containing 2% DMSO, and 10 μL of compound solutions are added to respective wells in triplicate. After 1 hr, AHR activating ligand, such as TCDD, kynurenine, ITE (2-(1H-indole-3-ylcarbonyl)-4-thiazolecarboxylic methyl ester), VAF347, BNF (beta-naphthoflavone), FICZ (6-formylindolo(3,2-b) carbazole or other AHR ligands, is added with or without AHR antagonist for 24 hours, after which media will be removed and stored at −80 C for later cytokine analysis. At the end of the incubation, medium is aspirated off the CRC cells, and the cells washed with 100 μL of cold PBS solution. RNA is extracted via the TaqMan™ Gene Expression Cells-to-CT™ Kit (ThermoFisher) according to the manufacturer's protocol. The QuantStudio 6 Flex (Applied Biosciences) is used to analyze mRNA levels of CYP1A1 using GAPDH as the endogenous control. TaqMan™ probe sets for both genes are acquired from ThermoFisher. Samples are run in triplicate and data is analyzed using the QuantStudio software and reported as linear and log 2(ΔΔCT) values. Statistical analysis is performed using a two-tailed t-test comparing CYP1A1 levels in the presence of each individual compound to the vehicle negative control. […] This assay can be used to confirm the inhibitory effect of the compounds prior to testing using an in vivo model.

[2] = Suspension Monkey heps ClInt; format: in vitro ADME; conditions: @1 and 0.1 mM
Text: Compound Nos. 9 and 46 have the following in vitro DMPK profiles.

[3] = Plasma Protein Binding, dog; format: in vitro ADME; conditions: read-out: Plasma Protein Binding PPB (d) % (converted)
Protocol: (§1) Example 10: Plasma Protein Binding Determination with Ultracentrifugation Method
(§2) The frozen plasma (stored at −80° C.) was thawed in a 37° C. water bath, followed by centrifugation at 3,220 g for 10 minutes to remove clots. The supernatant was removed into a new tube as the spun plasma. The spun plasma was pre-warmed in a 37° C. water bath for 10 minutes. The stock solutions of test compounds were diluted to 200 μM in DMSO, and then spiked into the plasma. Duplicate samples were prepared. The final concentration of compound was 1.0 μM. The final concentration of organic solvent was 0.5%. Warfarin was used as positive control in the assay. 1.0 mL of the spiked plasma was transferred to a new balance ultracentrifuge tube. Samples were incubated at 37° C., 5% CO2 for 30 minutes. After incubation, the balance ultracentrifuge tubes were centrifuged at 600,000 g for 5.5 hours at 37° C. […]
(§3) Data Analysis: All calculations were carried out using Microsoft Excel. The concentrations of test compound in plasma samples and post-ultracentrifugation plasma was determined from peak areas. The percentages of test compound bound was calculated as follows: […]

[4] = Plasma Protein Binding, monkey; format: in vitro ADME; conditions: read-out: Plasma Protein Binding PPB (mon) % (converted)
Protocol: as §1, §2, §3

[5] = test system: CYP; assay: CYP Inhibition (in vitro DMPK profile, Table 52); format: in vitro ADME
Protocol: Example 11: CYP Inhibition Assay
Stock solutions of test compounds were prepared in DMSO at the concentrations of 10 mM. Stock solution was diluted to 2 mM with acetonitrile. The final concentration of test compounds was 10 μM. For the stock solution preparation, if the positive control could not be well dissolved in the mixture of DMSO and acetonitrile (1:4) at the highest concentration, another mixture of acetonitrile and DMSO, the mixture of acetonitrile and H2O or DMSO will be used to dissolve the compound.
Data Analysis: The automatic peak integration areas are checked for all the samples. The Analyte Peak Area and Internal Standard Peak Area are exported into excel spreadsheet. The inhibition of each P450 enzyme in human liver microsomes is measured as the percentage decrease in the activity of marker metabolite formation compared to non-inhibited controls (=100% activity).

Structure (SMILES)	IC50 [1] [nM]	Mouse CYP1A1 % eff [1] [%]	Suspension Monkey heps ClInt (% Qh) [2]	fraction unbound at 5.5 h, 1 μM [3]	fraction unbound at 5.5 h, 1 μM [4]	CYP Inhibition [5]
C[C@H](n1cnc2c(-c3cnn(C)c3)nc(-c3ccc(Cl)cc3)cc2c1=O)C(C)(C)O [Compound 30]	2.9	~56				
C[C@@H](CO)n1cnc2c(-c3cccnc3)nc(-c3ccc(C(F)(F)F)cn3)cc2c1=O [Compound 46, (S)-3-(1-hydroxypropan-2-yl)-8-(pyridin-3-yl)-6-(5-(trifluoromethyl)pyridin-2-yl)pyrido[3,4-d]pyrimidin-4(3H)-one]	18.5	~96	<24 (@1 and % Qh	0.11	0.113	Negative
CC(C)(O)Cn1cnc2c(-c3cccnc3)nc(-c3ccc(C(F)(F)F)nc3)cc2c1=O [Compound 9]	2.7	~55	<24 (@1 and % Qh	0.124	0.149	Negative
